Measured values taken from patent US9206198B2, “Inhibitors of the renal outer medullary potassium channel” (Merck Sharp & Dohme Corp., priority 2012, dated 2015).

What was measured:
Kir1.1 (ROMK1) = Kir1.1 (ROMK1) (Homo sapiens (Human), UniProt P48048); experiment: Electrophysiology Assay (whole cell voltage clamp, IonWorks Quattro); type: cell-based; details: Chinese hamster ovary cells stably expressing Kir1.1; block during voltage step to 0 mV
Experimental: Block of Kir1.1 (ROMK1) currents was examined by whole cell voltage clamp (Hamill et. al. Pfluegers Archives 391:85-100 (1981)) using the IonWorks Quattro automated electrophysiology platform (Molecular Devices, Sunnyvale, Calif.). Chinese hamster ovary cells stably expressing Kir1.1 channels were maintained in T-75 flasks in cell culture media in a humidified 10% CO2 incubator at 37° C. Prior to an experiment, Kir1.1 expression was induced by overnight incubation with 1 mM sodium butyrate. On the day of the experiment, cells were dissociated with 2.5 mL of Versene (Invitrogen 15040-066) for approximately 6 min at 37° C. and suspended in 10 mL of bath solution containing (in mM): 150 NaCl, 10 KCl, 2.7 CaCl2, 0.5 MgCl2, 5 HEPES, pH 7.4. After centrifugation, the cell pellet was resuspended in approximately 4.0 mL of bath solution and placed in the IonWorks instrument. The intracellular solution consisted of (in mM): 80 K gluconate, 40 KCl, 20 KF, 3.2 MgCl2, 3 EGTA, 5 Hepes, pH 7.4. Electrical access to the cytoplasm was achieved by perforation in 0.13 mg/mL amphotericin B for 4 min. Amphotericin B (Sigma A-4888) was prepared as a 40 mg/mL solution in DMSO. Voltage protocols and current recordings were performed using the IonWorks HT software/hardware system. Currents were sampled at 1 kHz. No correction for liquid junction potentials was used. The test pulse, consisting of a 100 ms step to 0 mV from a holding potential of −70 mV, followed by a 100 ms voltage ramp from −70 mV to +70 mV, was applied before and after a 6 min compound incubation period. Test compounds were prepared by diluting DMSO stock solutions into the bath solution at 3× the final concentration and placed in the instrument in 96-well polypropylene plates. Current amplitudes were measured using the IonWorks software. To assess compound potency, the fractional block during the voltage step to 0 mV was calculated in Microsoft Excel (Microsoft, Redmond, Calif.), and dose-response curves were fitted with Igor Pro 4.0 (WaveMetrics, Lake Oswego, Oreg.). Normally, a control compound is included to support that the assay is giving consistent results compared to previous measurements, although the control is not required to obtain the results for the test compounds.

hROMK (hKir1.1) = hROMK (hKir1.1) (Homo sapiens (Human), UniProt P48048); experiment: Thallium Flux Assay (ROMK channel functional thallium flux assay, FLIPR-Tetra); type: cell-based; details: HEK293 cells stably expressing hROMK
Chain of hROMK (hKir1.1) (P48048 whole entry): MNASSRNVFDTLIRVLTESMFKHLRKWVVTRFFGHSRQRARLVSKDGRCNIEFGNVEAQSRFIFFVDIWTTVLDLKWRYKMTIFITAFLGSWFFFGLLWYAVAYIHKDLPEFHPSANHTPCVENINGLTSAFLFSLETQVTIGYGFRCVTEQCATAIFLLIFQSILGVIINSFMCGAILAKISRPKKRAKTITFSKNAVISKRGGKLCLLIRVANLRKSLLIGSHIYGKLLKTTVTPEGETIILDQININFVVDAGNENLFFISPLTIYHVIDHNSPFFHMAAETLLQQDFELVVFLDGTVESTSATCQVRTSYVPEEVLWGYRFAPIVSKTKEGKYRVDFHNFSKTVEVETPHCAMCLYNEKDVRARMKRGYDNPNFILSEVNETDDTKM
Experimental: Cell Culture Conditions— HEK293 cells stably expressing hROMK (hKir1.1) were grown at 37° C. in a 10% CO2 humidified incubator in complete growth media: Dulbecco's Modified Eagle Medium supplemented with non-essential amino acids, Penicillin/Streptomycin/Glutamine, G418 and FBS. At >80% confluency, aspirate the media from the flask and rinse with 10 mL Calcium/Magnesium-free PBS. Add 5 mL of 1× trypsin (prepared in Ca/Mg Free PBS) to T-225 flask and return flask to 37° C./CO2 incubator for 2-3 minutes. To dislodge the cell, gently bang the side of the flask with your hand. Triturate the cells completely and then transfer the cells to 25 mL complete media. Centrifuge at 1,500 rpm for 6 min followed by resuspension in complete growth media and determine cell concentration. For typical re-seeding, 4E6 cells/T-225 flask will attain >80% confluency in 4 days. Under ideal growth conditions and appropriate tissue culture practices, this cell line is stable for 40-45 passages.
FluxOR Kit Components (Invitrogen F10017)
• FluxOR™ Reagent (Component A) • FluxOR™ Assay Buffer (Component B)—10× Concentrate • PowerLoad™ Concentrate (Component C)—100× Concentrate • Probenecid (Component D)—Lyophilized sample is kept at −20° C. Water soluble, 100×after solubilization in 1 mL water. Store at 4° C. • FluxOR™ Chloride-free Buffer (Component E)—5× Concentrate • Potassium sulfate (K2SO4) Concentrate (Component F)—125 mM in water. Store at 4° C. • Thallium sulfate (Tl2SO4) Concentrate (Component G)—50 mM in water. Store at 4° C. • DMSO (dimethyl sulfoxide, Component H)—1 mL (100%) Reagent Preparation: FluxOR Working Solutions • 1000× FluxOR™ Reagent: Reconstitute a vial of component A in 100 μl DMSO; Mix well; Store 10 μl aliquots at −20° C. • 1× FluxOR™ Assay Buffer: Dilute Component B 10-fold with water; Adjust pH to 7.4 with Hepes/NaOH; Filter and store at 4° C. • Probenecid/Assay Buffer: 100 mL of 1× FluxOR™ Assay Buffer; 1 mL of reconstituted component D; Store at 4° C. • Loading Buffer (per microplate): 10 μl 1000× FluxOR™ Reagent; 100 μl component C; 10 mL Probenecid/Assay Buffer • Compound Buffer (per microplate): 20 mL Probenecid/Assay Buffer; 0.3 mM ouabain (10 mM ouabain in water can be stored in amber bottle/aluminum foil at room temperature); Test compound • 1× FluxOR™ Chloride-Free Buffer: Prepare 1× working solution in water. Can be stored at room temperature • Stimulant Buffer (prepared at 5× final concentration in 1× FluxOR™ Chloride-Free Buffer): 7.5 mM Thallium sulfate and 0.75 mM Potassium sulfate (to give a final assay concentration of 3 mM Thallium 0.3 mM Potassium). Store at 4° C. when not in use. If kept sterile, this solution is good for months.
Assay Protocol—The ROMK channel functional thallium flux assay is performed in 384 wells, using the FLIPR-Tetra instrument. HEK-hKir1.1 cells are seeded in Poly-D-Lysine microplates and kept in a 37° C.-10% CO2 incubator overnight. On the day of the experiment, the growth media is replaced with the FluxOR™ reagent loading buffer and incubated, protected from light, at ambient temperature (23-25° C.) for 90 min. The loading buffer is replaced with assay buffer±test compound followed by 30 min incubation at ambient temperature, where the Thallium/Potassium stimulant is added to the microplate.
• 1. Seed HEK-hKir1.1 cells ([…] at 20,000 cells/well) in 384-well PDL coated Microplates • 2. Allow cells to adhere overnight in humidified 37° C./10% CO2 incubator • 3. Completely remove cell growth media from microplate and replace with 25 μl loading buffer • 4. Incubate Microplate at room temperature, protected form light, for 90 min • 5. Remove loading buffer and replace with 25 μl 1× Assay Buffer±test compound. • 6. Incubate microplate at room temperature, protected from light, for 30 min • 7. At FLIPR-Tetra 384: Add stimulant (Thallium/Potassium) solution to microplate and monitor fluorescence. Excitation=400 nm, Emission=460 & 580 nm. Collect data for 10 min.

Chain of Kir1.1 (ROMK1) (P48048 whole entry, species assumed): as the sequence (P48048 whole entry) above

Row | Compound | IC50 (Kir1.1 (ROMK1)) | IC50 (hROMK (hKir1.1))
1 | O=C1C=C(N2CCC3(CCN(CC4OCCc5c4ccc4c5COC4=O)CC3)C2=O)CO1 (racemic) [Example 52] | 60 nM | 350 nM
2 | CC1=C(N2C(=O)C3(CCN(C[C@H](O)c4ccc5c(c4C)COC5=O)CC3)CC2C)COC1=O (single isomer, unassigned) [Example 30] | 20 nM | 20 nM
3 | CC1=C(N2CCC3(CCN(CC(O)c4ccc5c(c4C4CC4)COC5=O)CC3)C2=O)COC1=O (single isomer, unassigned) [Example 76] | 10 nM | 10 nM
4 | O=C1C=C(N2CCC3(CCN(CCc4ccc5c(c4)COC5=O)CC3)C2=O)CO1 [Example 3] | 70 nM | 290 nM
5 | CC1=C(N2CCC3(CCN(CC(NC4CCC4)c4ccc5c(c4C)COC5=O)CC3)C2=O)COC1=O (centres unmarked) [Example 56] |  | 370 nM
6 | COCCNC(CN1CCC2(CC1)CCN(C1=C(C)C(=O)OC1)C2=O)c1ccc2c(c1C)COC2=O (centres unmarked) [Example 58] |  | 220 nM
7 | CC1=C(N2CCC3(CCN(CC(NCCC#N)c4ccc5c(c4C)COC5=O)CC3)C2=O)COC1=O (centres unmarked) [Example 59] |  | 210 nM
8 | CNC(CN1CCC2(CC1)CCN(C1=C(C)C(=O)OC1)C2=O)c1ccc2c(c1C)COC2=O (centres unmarked) [Example 60, 8-[2-(methylamino)-2-(4-methyl-1-oxo-1,3-dihydro-2-benzofuran-5-yl)ethyl]-2-(4-methyl-5-oxo-2,5-dihydrofuran-3-yl)-2,8-diazaspiro[4.5]decan-1-one] |  | 100 nM
9 | Cc1c([C@@H](O)CN2CCC3(CC2)C(=O)N(C2=CC(=O)OC2)c2ccccc23)ccc2c1COC2=O [Example 65, 1′-[(2R)-2-hydroxy-2-(4-methyl-1-oxo-1,3-dihydro-2-benzofuran-5-yl)ethyl]-2-oxo-1-(5-oxo-2,5-dihydrofuran-3-yl)-1,2-dihydrospiro[indole-3,4′-piperidinium]] |  | 40 nM
10 | CC1=C(N2C(=O)C3(CCN(C[C@H](O)c4ccc5c(c4C)COC5=O)CC3)CC2C2CC2)COC1=O (some centres unmarked) [Example 70] |  | 340 nM
11 | CC1=CN(C2=C(C)C(=O)OC2)C(=O)C12CCN(C[C@H](O)c1ccc3c(c1C)COC3=O)CC2 [Example 73] |  | 80 nM
12 | CC1=C(N2CCC3(CC4COCC(C3)N4C[C@H](O)c3ccc4c(c3C)COC4=O)C2=O)COC1=O (some centres unmarked) [Example 82] |  | 180 nM

The remaining lines, values ahead:

Row | IC50 (Kir1.1 (ROMK1)) | IC50 (hROMK (hKir1.1)) | Compound
13 | 20 nM | 10 nM | CCC1CC2(CCN(C[C@H](O)c3ccc4c(c3C)COC4=O)CC2)C(=O)N1C1=CC(=O)OC1 (single isomer, unassigned) [Example 66]
14 | 30 nM | 20 nM | Cc1c([C@@H](O)CN2CCC3(CC2)CC(C2CC2)N(C2=CC(=O)OC2)C3=O)ccc2c1COC2=O (single isomer, unassigned) [Example 69]
15 | 10 nM | 30 nM | CCc1c(C(O)CN2CCC3(CC2)CCN(C2=C(C)C(=O)OC2)C3=O)ccc2c1COC2=O (single isomer, unassigned) [Example 75]
16 | 3 nM | 10 nM | CC1=C(N2CCC3(CCN(CC(O)c4ccc5c(c4Cl)COC5=O)CC3)C2=O)COC1=O (single isomer, unassigned) [Example 79]
17 | 10 nM | 50 nM | CC1=C(N2CCC3(CCN(CC(O)c4ccc5c(c4F)COC5=O)CC3)C2=O)COC1=O (single isomer, unassigned) [Example 80]
18 | 4 nM | 30 nM | Cc1c([C@@H](O)CN2CCC3(CC2)CCN(C2=CC(=O)OC2)C3=O)ccc2c1COC2=O [Example 5, 8-[(2R)-2-hydroxy-2-(4-methyl-1-oxo-1,3-dihydro-2-benzofuran-5-yl)ethyl]-2-(5-oxo-2,5-dihydrofuran-3-yl)-2,8-diazaspiro[4.5]decan-1-one]
19 | 10 nM | 20 nM | CC1=C(N2CCC3(CCN(C[C@H](O)c4ccc5c(c4C)COC5=O)CC3)C2=O)COC1=O [Example 7, 8-[(2R)-2-hydroxy-2-(4-methyl-1-oxo-1,3-dihydro-2-benzofuran-5-yl)ethyl]-2-(4-methyl-5-oxo-2,5-dihydrofuran-3-yl)-2,8-diazaspiro[4.5]decan-1-one]
20 | 10 nM | 10 nM | CC1=C(N2CCCC3(CCN(C[C@H](O)c4ccc5c(c4C)COC5=O)CC3)C2=O)COC1=O [Example 9, 9-[(2R)-2-hydroxy-2-(4-methyl-1-oxo-1,3-dihydro-2-benzofuran-5-yl)ethyl]-2-(4-methyl-5-oxo-2,5-dihydrofuran-3-yl)-1-oxo-2-aza-9-azoniaspiro[5.5]undecane]
21 | 390 nM | 370 nM | Cc1c([C@H](O)CN2CCC3(CC2)CCN(C2=CC(=O)OC2)C3=O)ccc2c1COC2=O [Example 21]
22 | 4 nM | 30 nM | Cc1c([C@@H](O)CN2CCC3(CC2)CCN(C2=C(F)C(=O)OC2)C3=O)ccc2c1COC2=O [Example 22]
23 | 10 nM | 20 nM | Cc1c([C@@H](O)CN2CCC3(CCCN(C4=CC(=O)OC4)C3=O)CC2)ccc2c1COC2=O [Example 23]
24 | 620 nM | 240 nM | Cc1c([C@@H](O)CN2CCC3(CCCN(C4=CC(=O)OC4)C3)CC2)ccc2c1COC2=O [Example 24]
25 | 10 nM | 10 nM | Cc1c([C@@H](O)CN2CCC3(CC2)CCN(C2=C(Cl)C(=O)OC2)C3=O)ccc2c1COC2=O [Example 25]
26 |  | 70 nM | COCC1=C(N2CCC3(CCN(C[C@H](O)c4ccc5c(c4C)COC5=O)CC3)C2=O)COC1=O [Example 71]
27 |  | 30 nM | CC1=CC2(CCN(C[C@H](O)c3ccc4c(c3C)COC4=O)CC2)C(=O)N1C1=CC(=O)OC1 [Example 72]
